The values that follow come from the NIST ThermoML archive (doi:10.1016/j.jct.2009.10.007).

The data set can be described thus: refractive index (Na D-line) (dimensionless); mn = molality of the nth substance listed, in mol/kg. Conditions: 308.15 K, 101 kPa, Liquid, Standard Abbe refractometry.

Numbers after ± are expanded uncertainties.

Broadly, the refractive index is the speed of light in vacuum divided by its phase velocity in the sample.

On to `O=C([O-])CC(O)(CC(=O)[O-])C(=O)[O-].[Na+].[Na+].[Na+]` [trisodium citrate] + O, for which the refractive index is, setting by setting: (m1 = 0.034) 1.3328 ± 0.0005; (m1 = 0.0682) 1.3345 ± 0.0005; (m1 = 0.1015) 1.3361 ± 0.0005; (m1 = 0.1424) 1.3379 ± 0.0005; (m1 = 0.1771) 1.3393 ± 0.0005; (m1 = 0.2157) 1.341 ± 0.0005. Moreover, the refractive index is on record as 1.3425 ± 0.0005 (m1 = 0.2524), 1.3438 ± 0.0005 (m1 = 0.2847), 1.3456 ± 0.0005 (m1 = 0.3319) and 1.3469 ± 0.0005 (m1 = 0.3674).
On to `O` [water] + O=C([O-])CC(O)(CC(=O)[O-])C(=O)[O-].[Na+].[Na+].[Na+], for which, where the note is “m2 = 0”, the refractive index worked out at 1.3311 ± 0.0005.
Turning to `O` [water] + CCCCn1cc[n+](C)c1.[Br-], the refractive index (m2 = 0) was found to be 1.3311 ± 0.0005.
